According to patent publication US5484584A, “Therapeutic and diagnostic use of modified polymeric microcapsules” (priority 1992, dated 1996):

Test: In vivo tissue distribution of 131I-ethyliopanoate loaded microcapsules after i.v. injection
Parameters: species or system rat
Conditions: rats, 5 uCi radiotracer
Experimental: PBLG and estrone-PBLG microcapsules loaded with [^131 I]ethyliopanoate (5.7 μCi in […] of water) were administered to rats in the tail vein. Rats (N=3/group) were sacrificed at 1, 3, 6, and 24 hours after injection. The percentage of injected dose in an organ or tissue was determined by a gamma counter.
Estrone conjugated poly-benzyl-L-glutamate microcapsules loaded with ^131 I-labeled ethyliopanoate were injected into rats (three per group) via the tail-vein (5.7 μCi in 0.3 ml water). Control groups were given only the ^131 I-labeled iopanoic acid. Rats were sacrificed at 1, 3, 6 and 24 hours post injection. The percent of injected dose per organ or per tissue weight was determined by a COBRA Auto-gamma counter (Packard, Meridien, Conn.).

## CCOC(=O)C(CC)Cc1c(I)cc(I)c(N)c1I (stereo not drawn) [IOPA, ethyliopanoate]
1 hr
  UTERUS TO MUSCLE RATIO: 2.92 ± 0.464
3 hrs
  UTERUS TO MUSCLE RATIO: 3.60 ± 0.346
6 hrs
  UTERUS TO MUSCLE RATIO: 3.47 ± 0.122
